{"source": "patent US20080140036A1", "about": "“Antimicrobial Composition” (priority 2004, published 2008)", "key": {"[1]": {"tested_on": "EMRSA m972 71041 phage group 5", "assay": "ZOI of triclosan vapours (vapour phase)"}, "MRSA 14": {"tested_on": "MRSA 14", "assay": "ZOI of triclosan vapours (vapour phase)"}, "MRSA 13": {"tested_on": "MRSA 13", "assay": "ZOI of triclosan vapours (vapour phase)"}, "[2]": {"tested_on": "all staphylococcal strains", "assay": "Vapours of triclosan, all strains", "format": "cell-based, Staphylococcus", "settings": "vapour phase"}, "[3]": {"tested_on": "S. epidermidis NCTC 11047", "assay": "ZOI of triclosan vapours (vapour phase)", "format": "cell-based"}, "[4]": {"tested_on": "S. saprophyticus NCIMB 8711", "assay": "MIC of triclosan (direct contact)", "format": "cell-based"}, "[5]": {"tested_on": "EMRSA m97 271 064 phage group 14", "assay": "ZOI of triclosan vapours (vapour phase)"}, "[6]": {"tested_on": "EMRSA g96 136 210 phage group 17", "assay": "ZOI of triclosan vapours (vapour phase)"}, "[7]": {"tested_on": "all strains of staphylococci", "assay": "MIC of triclosan (direct contact), all strains", "format": "cell-based"}, "Strain T1 MSSA": {"tested_on": "Strain T1 MSSA", "assay": "MIC of triclosan (direct contact)", "format": "cell-based, S. aureus"}, "[8]": {"tested_on": "EMRSA m97 271 032 phage group 10", "assay": "ZOI of triclosan vapours (vapour phase)"}, "MSSA (4)": {"tested_on": "MSSA (4)", "assay": "ZOI of triclosan vapours (vapour phase)", "format": "cell-based, S. aureus"}, "[9]": {"tested_on": "EMRSA g96 138 744 phage group 16", "assay": "ZOI of triclosan vapours (vapour phase)"}}, "data": [{"smiles": "Oc1cc(Cl)ccc1Oc1ccc(Cl)cc1Cl", "note": "[triclosan]", "values": [{"measurement": "ZOI Average", "setting": "[1]; average", "result": 55, "unit": "mm"}, {"measurement": "ZOI 1", "setting": "[1]; replicate 1", "result": 55, "unit": "mm"}, {"measurement": "ZOI 2", "setting": "[1]; replicate 2", "result": 55, "unit": "mm"}, {"measurement": "ZOI Average", "setting": "MRSA 14; average", "result": 55, "unit": "mm"}, {"measurement": "ZOI 1", "setting": "MRSA 14; replicate 1", "result": 55, "unit": "mm"}, {"measurement": "ZOI 2", "setting": "MRSA 14; replicate 2", "result": 55, "unit": "mm"}, {"measurement": "ZOI Average", "setting": "MRSA 13; average", "result": 47, "unit": "mm"}, {"measurement": "ZOI 1", "setting": "MRSA 13; replicate 1", "result": 47, "unit": "mm"}, {"measurement": "ZOI 2", "setting": "MRSA 13; replicate 2", "result": 47, "unit": "mm"}, {"measurement": "effect of vapours on growth", "setting": "[2]", "result": "effective at inhibiting growth of all staphylococcal strains"}, {"measurement": "ZOI Average", "setting": "[3]; average", "result": 50.5, "unit": "mm"}, {"measurement": "ZOI 1", "setting": "[3]; replicate 1", "result": 50, "unit": "mm"}, {"measurement": "ZOI 2", "setting": "[3]; replicate 2", "result": 51, "unit": "mm"}, {"measurement": "MIC", "setting": "[4]", "result": 2, "unit": "Mg ml^−1−"}, {"measurement": "ZOI Average", "setting": "[5]; average", "result": 35, "unit": "mm"}, {"measurement": "ZOI 1", "setting": "[5]; replicate 1", "result": 35, "unit": "mm"}, {"measurement": "ZOI 2", "setting": "[5]; replicate 2", "result": 35, "unit": "mm"}, {"measurement": "ZOI Average", "setting": "[6]; average", "result": 47, "unit": "mm"}, {"measurement": "ZOI 1", "setting": "[6]; replicate 1", "result": 47, "unit": "mm"}, {"measurement": "ZOI 2", "setting": "[6]; replicate 2", "result": 47, "unit": "mm"}, {"measurement": "concentration able to inhibit all strains of staphylococci", "setting": "[7]", "result": 2, "unit": "µg/mL"}, {"measurement": "MIC", "setting": "Strain T1 MSSA", "result": 0.5, "unit": "Mg ml^−1−"}, {"measurement": "ZOI Average", "setting": "[8]; average", "result": 49, "unit": "mm"}, {"measurement": "ZOI 1", "setting": "[8]; replicate 1", "result": 49, "unit": "mm"}, {"measurement": "ZOI 2", "setting": "[8]; replicate 2", "result": 49, "unit": "mm"}, {"measurement": "ZOI Average", "setting": "MSSA (4); average", "result": 51, "unit": "mm"}, {"measurement": "ZOI 1", "setting": "MSSA (4); replicate 1", "result": 50, "unit": "mm"}, {"measurement": "ZOI 2", "setting": "MSSA (4); replicate 2", "result": 52, "unit": "mm"}, {"measurement": "ZOI Average", "setting": "[9]; average", "result": 50, "unit": "mm"}, {"measurement": "ZOI 1", "setting": "[9]; replicate 1", "result": 50, "unit": "mm"}, {"measurement": "ZOI 2", "setting": "[9]; replicate 2", "result": 50, "unit": "mm"}]}]}
